Like-named read-outs stand apart in the source and are kept apart here.
Key:
Format in all cases: in vivo
Leptosphaeria nodorum = test: Wheat Glume Blotch (LEPTNO) disease control; conditions: 100 ppm, 1 Day Protectant
Method: Technical grades of materials were dissolved in acetone, which were then mixed with nine volumes of water containing 110 ppm Triton X-100. The fungicide solutions were applied onto wheat seedlings using an automated booth sprayer to run-off. All sprayed plants were allowed to air dry prior to further handling. All fungicides were evaluated using the aforementioned method for their activity vs. all target diseases, unless stated otherwise. Wheat leaf blotch and brown rust activity were also evaluated using track spray applications, in which case the fungicides were formulated as EC formulations, containing 0.1% Trycol 5941 in the spray solutions. Wheat plants (variety Yuma) were grown from seed in a greenhouse in 50% mineral soil/50% soil-less Metro mix until the first leaf was fully emerged, with 7-10 seedlings per pot. These plants were inoculated with an aqueous spore suspension of Septoria tritici either prior to or after fungicide treatments. After inoculation the plants were kept in 100% relative humidity (one day in a dark dew chamber followed by two to three days in a lighted dew chamber at 20° C.) to permit spores to germinate and infect the leaf. The plants were then transferred to a greenhouse set at 20° C. for disease to develop. When disease symptoms were fully expressed on the 1st leaves of untreated plants, infection levels were assessed on a scale of 0 to 100 percent disease severity. Percent disease control was calculated using the ratio of disease severity on treated plants relative to untreated plants. Example C: Evaluation of Fungicidal Activity: Wheat Glume Blotch (Leptosphaeria nodorum; Bayer code […]) Wheat plants (variety Yuma) were grown from seed in a greenhouse in 50% mineral soil/50% soil-less Metro mix until the first leaf was fully emerged, with 7-10 seedlings per pot. These plants were inoculated with an aqueous spore suspension of Leptosphaeria nodorum 24 hr after fungicide treatments. […]

Puccinia triticina = test: Wheat Brown Rust (PUCCRT) disease control on wheat seedlings; conditions: for pest or weed control at 121.5 g/ha: Low Volume (121.5 g/H); for pest or weed control at 100 µg/mL: High Volume (100 ppm)
How it was run: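 Yuma wheat seedlings at the first-leaf stage sprayed to run-off (acetone solution in nine volumes of water, 110 ppm Triton X-100) or track-sprayed as EC with 0.1% Trycol 5941. Inoculation with P. triticina before or after treatment, then overnight dark dew at 22° C., 100% RH, then a 24° C. greenhouse. Percent control from severity vs untreated.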

Glomerella lagenarium = test: Cucumber Anthracnose (COLLLA) disease control; conditions: 100 ppm, 1 Day Protectant
Method: Technical grades of materials were dissolved in acetone, which were then mixed with nine volumes of water containing 110 ppm Triton X-100. The fungicide solutions were applied onto wheat seedlings using an automated booth sprayer to run-off. All sprayed plants were allowed to air dry prior to further handling. All fungicides were evaluated using the aforementioned method for their activity vs. all target diseases, unless stated otherwise. Wheat leaf blotch and brown rust activity were also evaluated using track spray applications, in which case the fungicides were formulated as EC formulations, containing 0.1% Trycol 5941 in the spray solutions. Wheat plants (variety Yuma) were grown from seed in a greenhouse in 50% mineral soil/50% soil-less Metro mix until the first leaf was fully emerged, with 7-10 seedlings per pot. These plants were inoculated with an aqueous spore suspension of Septoria tritici either prior to or after fungicide treatments. After inoculation the plants were kept in 100% relative humidity (one day in a dark dew chamber followed by two to three days in a lighted dew chamber at 20° C.) to permit spores to germinate and infect the leaf. The plants were then transferred to a greenhouse set at 20° C. for disease to develop. When disease symptoms were fully expressed on the 1st leaves of untreated plants, infection levels were assessed on a scale of 0 to 100 percent disease severity. Percent disease control was calculated using the ratio of disease severity on treated plants relative to untreated plants. Example N: Evaluation of Fungicidal Activity: Cucumber Anthracnose (Glomerella lagenarium; Anamorph: Colletotrichum lagenarium; Bayer Code COLLLA) Cucumber seedlings (variety Bush Pickle) were propagated in soil-less Metro mix, with each pot having one plant, and used in the test when 12 to 14 days old. Test plants were inoculated with an aqueous spore suspension of Colletotrichum lagenarium 24 hr after fungicide treatments. […]

[1] = 24 h, 1 Day Protectant, read-out: PUCCRT disease control, 1 DP
[2] = 72 h, 3 Day Curative, read-out: PUCCRT disease control, 3 DC

CCCC[C@H]1OCC[C@H](NC(=O)c2nccc(OC)c2OC(C)=O)C(=O)O[C@@H](C)[C@@H]1Cc1ccccc1 [Compound 2]
LEPTNO disease control, 1DP (Leptosphaeria nodorum): A (>70) | pest or weed control at 121.5 g/ha (Puccinia triticina; [1]): > 70% | pest or weed control at 121.5 g/ha (Puccinia triticina; [2]): > 70% | COLLLA disease control, 1DP (Glomerella lagenarium): A (>70)

COc1ccnc(C(=O)N[C@H]2CCO[C@H](Cc3ccccc3)[C@@H](Cc3ccccc3)[C@H](C)OC2=O)c1OC(C)=O [Compound 3]
LEPTNO disease control, 1DP (Leptosphaeria nodorum): A (>70) | pest or weed control at 121.5 g/ha (Puccinia triticina; [1]): > 70% | pest or weed control at 121.5 g/ha (Puccinia triticina; [2]): > 70% | COLLLA disease control, 1DP (Glomerella lagenarium): A (>70)

CCC[C@H]1OCC[C@H](NC(=O)c2nccc(OC)c2OCOC(C)=O)C(=O)O[C@@H](C)[C@@H]1Cc1ccccc1 [Compound 17]
LEPTNO disease control, 1DP (Leptosphaeria nodorum): A (>70) | pest or weed control at 100 µg/mL (Puccinia triticina; [1]): > 70% | pest or weed control at 121.5 g/ha (Puccinia triticina; [1]): > 70% | pest or weed control at 100 µg/mL (Puccinia triticina; [2]): > 70% | pest or weed control at 121.5 g/ha (Puccinia triticina; [2]): > 70% | COLLLA disease control, 1DP (Glomerella lagenarium): A (>70)

— US9686984B2, “Macrocyclic picolinamides as fungicides” (DOW AGROSCIENCES LLC, priority 2014, dated 2017)
